# Measured values: patent publication US20080070867A1, “2-Imidazolone and 2-Imidazolidinone Heterocyclic Inhibitors of Tyrosine Phosphatases” (Metabasis Therapeutics, Inc., priority 2005, published 2008)
# pIC50: −log10 of the molar value.
# Biological target: T1, Human recombinant PTP-1B (Homo sapiens, UniProt P18031)
# T1 construct: Human recombinant PTP-1B, containing amino acids 1-321, fused to GST enzyme; GST (glutathione S-transferase)
# T1 sequence (P18031 1-321): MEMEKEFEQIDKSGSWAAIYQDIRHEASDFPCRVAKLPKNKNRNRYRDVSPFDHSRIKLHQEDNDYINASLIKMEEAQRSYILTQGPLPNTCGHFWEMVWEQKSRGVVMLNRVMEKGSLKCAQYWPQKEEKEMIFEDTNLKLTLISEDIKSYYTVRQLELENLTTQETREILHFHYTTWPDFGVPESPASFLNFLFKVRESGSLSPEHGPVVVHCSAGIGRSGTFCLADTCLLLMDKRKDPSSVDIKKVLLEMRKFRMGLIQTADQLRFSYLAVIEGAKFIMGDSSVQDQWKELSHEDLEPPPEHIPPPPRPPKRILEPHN
# Test: Assay for PTP-1B Activity (pNPP substrate)
# Format: biochemical
# Settings: human recombinant PTP-1B (1-321) GST fusion, 2 mM pNPP, pH 7.4, 30° C., 20 min; read-out: Activity Code (IC50 range)
# Procedure, shortened: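 GST-fused human PTP-1B (aa 1-321) hydrolysed 2 mM pNPP in 50 mM HEPES pH 7.4, 100 mM NaCl, 2 mM EDTA, 3 mM DTT for 20 min at 30 °C, after a 2 min compound premix. K2CO3 stopped the reaction, with pNP read at 405 nm. Initial rate was plotted against inhibitor concentration.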
row,SMILES,pIC50
1,"COC(=O)c1ccc(Cn2ccn(Cc3ccc(C(F)(F)P(=O)(O)O)c(Br)c3)c2=O)cc1 [Compound 81, 4-{3-[3-Bromo-4-(difluoro-phosphono-methyl)-benzyl]-2-oxo-2,3-dihydro-imidazol-1-ylmethyl}-benzoic acid methyl ester]",5.60 to 6.60
2,"O=c1[nH]ccn1Cc1ccc(C(F)(F)P(=O)(O)O)c(Br)c1 [Compound 87, {[2-Bromo-4-(2-oxo-2,3-dihydro-imidazol-1-ylmethyl)-phenyl]-difluoro-methyl}-phosphonic acid]",4.60 to 5.60
3,"O=c1n(Cc2ccc(C(F)(F)P(=O)(O)O)c(Br)c2)ccn1Cc1ccc(C(F)(F)P(=O)(O)O)c(Br)c1 [Compound 88, [(2-Bromo-4-{3-[3-bromo-4-(difluoro-phosphono-methyl)-benzyl]-2-oxo-2,3-dihydro-imidazol-1-ylmethyl}-phenyl)-difluoro-methyl]-phosphonic acid]",> 7.00
4,"O=C1N(Cc2ccccc2)CCN1Cc1ccc(C(F)(F)P(=O)(O)O)c(Br)c1 [Compound 89, {[4-(3-Benzyl-2-oxo-imidazolidin-1-ylmethyl)-2-bromo-phenyl]-difluoro-methyl}-phosphonic acid]",5.60 to 6.60

# Now from value to molecule:
row,pIC50,SMILES
1,5.60 to 6.60,"COC(=O)COc1ccc(Cn2ccn(Cc3ccc(C(F)(F)P(=O)(O)O)c(Br)c3)c2=O)cc1Cl [Compound 82, (4-{3-[3-Bromo-4-(difluoro-phosphono-methyl)-benzyl]-2-oxo-2,3-dihydro-imidazol-1-ylmethyl}-2-chloro-phenoxy)-acetic acid methyl ester]"
2,5.60 to 6.60,"O=C(O)COc1ccc(Cn2ccn(Cc3ccc(C(F)(F)P(=O)(O)O)c(Br)c3)c2=O)cc1Cl [Compound 83, (4-{3-[3-Bromo-4-(difluoro-phosphono-methyl)-benzyl]-2-oxo-2,3-dihydro-imidazol-1-ylmethyl}-2-chloro-phenoxy)-acetic acid]"
3,4.60 to 5.60,"CCCCCCCCCCCCCCCCOCCCOP(=O)(O)C(F)(F)c1ccc(Cn2c(-c3ccc(S(C)(=O)=O)cc3)c[nH]c2=O)cc1Br [Compound 84, ({2-Bromo-4-[5-(4-methanesulfonyl-phenyl)-2-oxo-2,3-dihydro-imidazol-1-ylmethyl]-phenyl}-difluoro-methyl)-phosphonic acid mono-(3-hexadecyloxy-propyl) ester]"
4,5.60 to 6.60,"O=C(O)c1ccc(Cn2ccn(Cc3ccc(C(F)(F)P(=O)(O)O)c(Br)c3)c2=O)cc1 [Compound 85, 4-{3-[3-Bromo-4-(difluoro-phosphono-methyl)-benzyl]-2-oxo-2,3-dihydro-imidazol-1-ylmethyl}-benzoic acid]"
5,5.60 to 6.60,"COC(=O)c1ccc(Cn2c(=O)n(Cc3ccc(C(F)(F)P(=O)(O)O)c(Br)c3)c3ccccc32)cc1 [Compound 86, 4-{3-[3-Bromo-4-(difluoro-phosphono-methyl)-benzyl]-2-oxo-2,3-dihydro-benzoimidazol-1-ylmethyl}-benzoic acid methyl ester]"
